Experimental data taken from patent publication US8921320B2, “Targeted osmotic lysis of cancer cells” (Board of Supervisors of Louisiana State University and …, priority 2011, dated 2014).
“Also recorded” adds a separate entry of the source. Where two headings read alike, the source gives them in different places.

Experiments:
[1] = tested on: 3LL (non-small cell lung cancer); experiment: Time to lysis of cultured cancer cells (drug + electrical stimulation); type: cell-based; conditions: 2 V DC, 200 pulses per second, 5 min limit
Description: (§1) We also used two cardiac glycoside drugs that are currently FDA-approved for clinical use, ouabain and digoxin, for in vitro lysis of multiple lines of carcinoma. […] Cell lines were: MDA-MB-231 (breast cancer); MCF-7 (breast cancer; ATCC# HTB-22); LNCaP (prostate cancer; ATCC# CRL-1740); DU145 (prostate cancer; ATCC# HTB-81); MCA-38 (colon cancer; from Dr. Augusto Ochoa); A549 (non-small cell lung cancer; ATCC# CCL-185); and 3LL (non-small cell lung cancer; from Dr. Augusto Ochoa, Louisiana State University, New Orleans, La.). Cells were plated in 35 mm diameter culture dishes in Dulbecco's Modified Eagle's Medium (DMEM, Gibco) supplemented with 4 mM L-glutamine, 1 mM sodium pyruvate and 10 μM insulin for 18-24 hr. […] A 2 V DC current, 200 pulses per second was passed across individual cells using a Grass Model SD9 stimulator (Grass Instruments, Quincy, Mass.) through platinum wire electrodes held in place with a David Kopf Instrument micromanipulator (Tarzana, Calif.), and the time to lysis was measured. Video recordings of representative experiments were prepared digitally using a Canon Vixia HFM400 camera attached to Leica DM IL microscope, and are available upon request. […] All of the cancer cells lysed, with the time to lysis faster for the cells with the largest known expression of VGSCs.

[2] = tested on: MDA-MB-231 (breast cancer); experiment: as above; type: cell-based; conditions: 2 V DC, 200 pulses per second, 5 min limit
Description: as §1

LNCaP (prostate cancer) = experiment: as above; type: cell-based; conditions: 2 V DC, 200 pulses per second, 5 min limit
Description: as §1

DU145 (prostate cancer) = experiment: as above; type: cell-based; conditions: 2 V DC, 200 pulses per second, 5 min limit
Description: as §1

MCA-38 (colon cancer) = experiment: as above; type: cell-based; conditions: 2 V DC, 200 pulses per second, 5 min limit
Description: as §1

[3] = tested on: MDA-MB-231 breast cancer cells; type: cell-based
Experimental: The effectiveness of TOL has been tested using an in vitro model for breast cancer. MDA-MB-231 breast cancer cells were cultured to complete confluency in 96-well plates. These breast cancer cells are known to over-express VGSCs by 1400-fold. These cells were exposed to Dulbecco's modified Eagle's medium (DMEM), or the cardiac glycoside drugs (known sodium pump inhibitors) ouabain (10 pM-100 nM; Sigma Chemical Co., St. Louis, Mo.) or digitoxin (100 pM-1 μM; Sigma) dissolved in DMEM for 30 min. After exposure to the sodium pump inhibitors, an electric current (0 V, 100 mV, or 1 V DC) was passed across the cells using an anode and a cathode placed touching the bottom of each well or an etched circuit in the bottom of the plate. The electric current was generated using a Grass Model SD9 stimulator (Grass Instruments, Quincy, Mass.) through platinum wire electrodes.
Initially we cultured MDA-MB-231 (ATCC, Manassas, Va., cat #HTB-26) breast cancer cells to complete confluency in 96-well plates. These cells over-express VGSCs by 100-fold. […] An electric current (0 V, 100 mV, or 1 V DC) was passed across the cells by means of an anode and a cathode placed touching the bottom of each well as in Example 1.

[4] = tested on: MDA-MB-231 breast cancer cells; experiment: cells; type: cell-based; conditions: alamar blue added after 1 hr, read 4 hr later
Experimental: The effect of the combination of ouabain (a sodium pump inhibitor) and veratridine (a sodium […]) on viability of cultured MDA-MB-231 and MCF-7 breast cancer cells was assessed. The former cells over-express VGSCs by more than 1000-fold, whereas the latter cells over-express VGSCs by 100-fold (24). MDA-MB-231 cells were cultured in DMEM, whereas MCF-7 cells were cultured in DMEM+10 μM insulin. After centrifugation, both cell lines were re-suspended in DMEM+10 μM insulin to assure normal functioning of Na^+, K^+-ATPase, and approximately 5000 cells were added to each well in a 96-well plate in a volume of 100 μl. After 18 hr, the media was aspirated, and the cells were treated with 100 μl DMEM+10 μM insulin (“media”) alone, media+100 nM ouabain, media+30 μM veratridine, or media+100 nM ouabain+30 μM veratridine. After 1 hr, […] alamar blue was added to each well, and cell viability determined 4 hr after this addition. All determinations were obtained in quadruplicate, and the experiment repeated three times. […] Veratridine alone reduced viability of MDL-MB-231 cells by 15% (FIG. 1) compared to media alone-treated cells. In this initial experiment, ouabain combined with veratridine produced a 30% reduction in cell viability. In MCF-7 cells, none of the treatments affected cell viability (Data not shown). […]

MDA-MB-231 tumors [5] = experiment: In vivo TOL in breast cancer xenografts, tumor histology (hematoxylin and eosin); parameters: species or system nude (J-NU) mice
Experimental: As an in vivo model of cancer, MDA-MB-231 cells were suspended in matrigel and injected subcutaneously into the backs of 5 nude (J-NU) mice. Each mouse developed 0.75-1.2 cm tumors in 3-5 weeks. The mice were then injected subcutaneously with 10 mg/kg ouabain or saline. After 30 min, the mice were anesthetized with 4% isoflurane, and the tumors exposed through a small incision in the skin. An anode and a cathode were inserted into each tumor, and a train of 120 1 V DC pulses (10 msec, 2 Hz for 1 min) was delivered through the anode and cathode as discussed above. A total of 11 tumors were tested. Three tumors were from mice treated with ouabain and electrically stimulated (O-ES experimental). Of the rest, two were from a mouse treated with saline and not electrically stimulated (S-NS control), three were from mice treated with ouabain but not electrically stimulated (O-NS control), and three were from mice treated with saline and electrically stimulated (S-ES control). The electrical stimulation was repeated 15 and 30 min later. One day later, mice were sacrificed with an overdose of Nat pentobarbital, perfused with 4% buffered paraformaldehyde, and the tumors removed. The tumors were sectioned at 5 μm and stained with hematoxylin and eosin. […] The other two mice in the O-ES group had tumors that were not highly vascularized, and thus the ouabain could not efficiently distribute to the tumor cells.
As an in vivo model of cancer, we injected 4 million MDA-MB-231 cells, suspended in matrigel, subcutaneously into the backs of 5 nude (J-NU) mice. Each mouse developed 0.75-1.2 cm tumors in 3-5 weeks. The mice were injected subcutaneously with 10 mg/kg ouabain or saline and then after 30 min anesthetized with 4% isoflurane. The tumors of the mice were exposed through a small incision in the skin. An anode and a cathode were inserted into each tumor, and a train of 120 1 V DC pulses (10 msec, 2 pulses per second for 1 min) using the Grass SD9 stimulator was delivered through a copper anode and cathode. Some controls received no stimulation. A total of 11 tumors were tested. Three tumors were from mice treated with 10 mg/kg s.c. ouabain and electrically stimulated (O-ES experimental). […]
This experiment was repeated using 10 mice (2 per control group and 4 in the experimental group.) Four million MDA-MB-231 cells suspended in 50% matrigel were injected s.c. in J/Nu mice, and tumors allowed to grow until visibly vascularized (reddish in appearance.) Stimulation parameters were 10 V DC, 1 msec pulses @ 200 pulses per second. […] One day later, animals were sacrificed, perfused, tumors removed, and prepared for hematoxylin and eosin staining Stained sections from each of the tumors were evaluated by a trained histologist.

MDA-MB-231 tumors [6] = experiment: Tumor growth following a single TOL treatment; type: in vivo, J/Nu mice; conditions: single treatment Day 0: ouabain 10 mg/kg + 2×1 min electrical stimulation; cross-sectional area followed three weeks; p<0.01
Experimental: When vascularized tumors became apparent, mice were divided into 4 treatment groups: Saline-No stimulation; Saline-Stimulation (2×1 min electrical stimulation); Ouabain (10 mg/kg)-No stimulation; and Ouabain (10 mg/kg)-Stimulation (2×1 min electrical stimulation). Only a single treatment was given for each treatment group on Day 0 of FIG. 2. Tumor cross-sectional area was then measured with calipers every-other day for three weeks. The tumor growth was expressed as a percent pre-treatment size and plotted against time.

MCF-7 (breast cancer) = experiment: Time to lysis of cultured cancer cells (drug + electrical stimulation); type: cell-based; conditions: 100 nM ouabain, 2 V DC, 200 pulses per second, 5 min limit
Experimental: (§2) Cell lines were: MDA-MB-231 (breast cancer); MCF-7 (breast cancer; ATCC# HTB-22); LNCaP (prostate cancer; ATCC# CRL-1740); DU145 (prostate cancer; ATCC# HTB-81); MCA-38 (colon cancer; from Dr. Augusto Ochoa); A549 (non-small cell lung cancer; ATCC# CCL-185); and 3LL (non-small cell lung cancer; from Dr. Augusto Ochoa, Louisiana State University, New Orleans, La.). Cells were plated in 35 mm diameter culture dishes in Dulbecco's Modified Eagle's Medium (DMEM, Gibco) supplemented with 4 mM L-glutamine, 1 mM sodium pyruvate and 10 μM insulin for 18-24 hr. […] A 2 V DC current, 200 pulses per second was passed across individual cells using a Grass Model SD9 stimulator (Grass Instruments, Quincy, Mass.) through platinum wire electrodes held in place with a David Kopf Instrument micromanipulator (Tarzana, Calif.), and the time to lysis was measured. Video recordings of representative experiments were prepared digitally using a Canon Vixia HFM400 camera attached to Leica DM IL microscope, and are available upon request.

[7] = tested on: A549 (non-small cell lung cancer); experiment: as above; type: cell-based; conditions: 100 nM ouabain, 2 V DC, 200 pulses per second, 5 min limit
Experimental: as §2

[8] = tested on: muscle, peripheral nerves, heart, and brain; type: in vivo, J/Nu mice
Experimental: As an in vivo model of cancer, MDA-MB-231 cells were suspended in matrigel and injected subcutaneously into the backs of 5 nude (J-NU) mice. Each mouse developed 0.75-1.2 cm tumors in 3-5 weeks. The mice were then injected subcutaneously with 10 mg/kg ouabain or saline. After 30 min, the mice were anesthetized with 4% isoflurane, and the tumors exposed through a small incision in the skin. An anode and a cathode were inserted into each tumor, and a train of 120 1 V DC pulses (10 msec, 2 Hz for 1 min) was delivered through the anode and cathode as discussed above. A total of 11 tumors were tested. Three tumors were from mice treated with ouabain and electrically stimulated (O-ES experimental). Of the rest, two were from a mouse treated with saline and not electrically stimulated (S-NS control), three were from mice treated with ouabain but not electrically stimulated (O-NS control), and three were from mice treated with saline and electrically stimulated (S-ES control). The electrical stimulation was repeated 15 and 30 min later. One day later, mice were sacrificed with an overdose of Nat pentobarbital, perfused with 4% buffered paraformaldehyde, and the tumors removed. The tumors were sectioned at 5 μm and stained with hematoxylin and eosin. […]

Structure (SMILES): C[C@H]1O[C@@H](O[C@H]2[C@@H](O)C[C@H](O[C@H]3[C@@H](O)C[C@H](O[C@H]4CC[C@@]5(C)[C@H](CC[C@@H]6[C@@H]5C[C@@H](O)[C@]5(C)[C@@H](C7=CC(=O)OC7)CC[C@]65O)C4)O[C@@H]3C)O[C@@H]2C)C[C@H](O)[C@@H]1O [digoxin]
- Mean time-to-lysis ± SEM, Digoxin + Stimulation ([1]; 1 μM digoxin): 163.75 ± 8.27 s
- Mean time-to-lysis ± SEM, Digoxin + Stimulation ([2]; 1 μM digoxin 15-45 min): 68.39 ± 7.31 s
- Mean time-to-lysis ± SEM, Digoxin + Stimulation (LNCaP (prostate cancer); 1 μM digoxin): 122.9 ± 3.13 s
- Mean time-to-lysis ± SEM, Digoxin + Stimulation (DU145 (prostate cancer); 1 μM digoxin): 111.3 ± 9.7 s
- Mean time-to-lysis ± SEM, Digoxin + Stimulation (MCA-38 (colon cancer); 1 μM digoxin): 122.7 ± 9.02 s
- cancer cell death in wells [3]: every cancer cell died; also recorded: all cancer cells died

Structure (SMILES): COc1ccc(C(=O)O[C@H]2CC[C@@]3(C)[C@@H]4CC[C@H]5[C@]6(O)C[C@H](O)[C@@]7(O)[C@@H](CN8C[C@@H](C)CC[C@H]8[C@@]7(C)O)[C@]6(O)C[C@@]53O[C@]24O)cc1OC [veratridine]
- cytotoxicity at 30 µM ([4]; Homo sapiens, 30 μM veratridine alone, read-out: reduction in cell viability compared to media alone): 15%

Structure (SMILES): C[C@@H]1O[C@@H](O[C@H]2C[C@@H](O)[C@]3(CO)[C@H]4[C@H](O)C[C@]5(C)[C@@H](C6=CC(=O)OC6)CC[C@]5(O)[C@@H]4CC[C@]3(O)C2)[C@H](O)[C@H](O)[C@H]1O [ouabain]
- lysis in tumors that were not highly vascularized (MDA-MB-231 tumors [5]; 10 mg/kg s.c. ouabain + electrical stimulation (1 V DC), the other two mice of the O-ES group): no lysis was seen
- tumor cell death after treatment (MDA-MB-231 tumors [5]; 10 mg/kg s.c. ouabain + electrical stimulation (120 1 V DC pulses, repeated 15 and 30 min later), one of three O-ES tumors, one day later): 80%
- cell lysis in tumors, ouabain without electrical stimulation (O-NS control) (MDA-MB-231 tumors [5]; 10 mg/kg s.c. ouabain, no stimulation, three tumors, one day later): None of the tumors in any of the other three treatments showed any sign of cell lysis; also recorded: None of the tumors in any of the three control treatments showed any sign of cell lysis
- lysis in control tumors (incl. ouabain without stimulation) (MDA-MB-231 tumors [5]; repeat experiment, 10 mice, 2 per control group, 10 mg/kg s.c. ouabain): none of the controls showed any sign of lysis
- change in cell viability compared to media-only controls ([4]; 100 nM ouabain alone): no decrease in cell viability
- tumor size smaller than in the three other groups (MDA-MB-231 tumors [6]): 70%
- Mean time-to-lysis ± SEM, Ouabain + Stimulation ([1]; 100 nM ouabain): 115.9 ± 3.33 s
- Mean time-to-lysis ± SEM, Ouabain + Stimulation ([2]; 100 nM ouabain 15-45 min): 69.3 ± 4.82 s
- Mean time-to-lysis ± SEM, Ouabain + Stimulation (LNCaP (prostate cancer); 100 nM ouabain): 143.1 ± 5.78 s
- Mean time-to-lysis ± SEM, Ouabain + Stimulation (DU145 (prostate cancer); 100 nM ouabain): 81.6 ± 3.96 s
- Mean time-to-lysis ± SEM, Ouabain + Stimulation (MCA-38 (colon cancer); 100 nM ouabain): 74.0 ± 1.0 s
- Mean time-to-lysis ± SEM, Ouabain + Stimulation (MCF-7 (breast cancer)): 170.5 ± 15.35 s
- Mean time-to-lysis ± SEM, Ouabain + Stimulation [7]: 149.9 ± 11.70 s
- lysis in healthy muscle, peripheral nerves, heart, and brain ([8]; 10 mg/kg ouabain s.c., tissues electrically stimulated after 30 min, one day later): None of these tissues showed signs of lysis
- cell death in normal muscle taken from the base of the tumor ([8]; 10 mg/kg s.c. ouabain + electrical stimulation (1 V DC), same mouse as the tumor with 80% cell death): no sign of cell death
- cancer cell death in wells ([3]; ≧1 nM ouabain 30 min, then 100 mV or 1 V DC electric current, 6 of 24 wells (ouabain or digoxin)): every cancer cell died; also recorded: all cancer cells died
